Test results: article PMC11097166, “Imidazole-Derived Alkyl and Aryl Ethers: Synthesis, Characterization, In Vitro Anticancer and Antioxidant Activities, Carbonic Anhydrase I–II Inhibition Properties, and In Silico Studies” (ACS Omega, 2024)

Legend:
hCA II = hCA II (Homo sapiens, UniProt P00918); assay: CA esterase activity method, hCA II; type: biochemical; conditions: for Effect on hCA II isoenzyme activity: Table S3; for IC50: esterase activity, p-nitrophenyl acetate substrate; on Effect on hCA II isoenzyme activity: key: +: active; -: not effect
From the text: (§1) The method used to spectrophotometrically detect the antiepileptic, antiglaucoma, and […] effects of the obtained compounds in vitro is the esterase activity method. This method relies on the esterase activity of CA for the hydrolysis of p-nitrophenyl acetate as a substrate, which is a part of the reaction mechanism involving p-nitrophenol or p-nitrophenolate.

hCA I = hCA I (Homo sapiens, UniProt P00915); assay: CA esterase activity method, hCA I; type: biochemical; conditions: for Effect on hCA I isoenzyme activity: Table S3; for IC50: esterase activity, p-nitrophenyl acetate substrate; on Effect on hCA I isoenzyme activity: key: +: active; -: not effect
Sequence of hCA I (P00915 whole entry): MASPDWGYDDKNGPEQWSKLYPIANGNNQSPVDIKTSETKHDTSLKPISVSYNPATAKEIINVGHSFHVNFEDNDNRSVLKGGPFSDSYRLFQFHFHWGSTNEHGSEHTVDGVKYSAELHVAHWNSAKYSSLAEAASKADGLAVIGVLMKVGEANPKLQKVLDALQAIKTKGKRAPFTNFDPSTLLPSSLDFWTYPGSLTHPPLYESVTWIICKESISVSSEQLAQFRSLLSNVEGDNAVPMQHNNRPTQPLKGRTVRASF
From the text: as §1

FRAP antioxidant assay = conditions: trolox standard curve
Procedure: The FRAP method was used to determine the antioxidant power of compounds. This method, which determines the reducing power of compounds, was developed by Benzie and Strain.[48] Fe(III)–TPTZ complex is formed as a result of the reaction of Fe(III) with tripyridyltriazine (TPTZ), and this complex is reduced to the Fe(II)–TPTZ complex with the antioxidant in the environment. The color of this complex is dark blue and gives the maximum absorbance at 593 nm.[48] Incubation is performed for up to 30 min to complete the reaction, and the correct absorbance values were read. The FRAP values of the samples were calculated as “μmol trolox equiv/g sample” with the help of the standard curve obtained using methanol–trolox standard solutions (0; 0.2; 0.4; 0.6; 0.8; and 1.0 μmol/mL) which were used as the positive control.[49] […]

Row | Compound | Effect on hCA II isoenzyme activity (hCA II) | Effect on hCA I isoenzyme activity (hCA I) | FRAP (FRAP antioxidant assay) [μmol trolox equiv/g] | IC50 (hCA II) [nM] | IC50 (hCA I) [nM]
1 | CCCOC(Cn1ccnc1)c1ccc(OC)cc1 (centres unmarked) [Compound 14, 1-(2-(4-Methoxyphenyl)-2-propoxyethyl)-1H-imidazole] | + | + | 0.28 ± 0.01 |  | 
2 | COc1ccc(C(=O)Cn2ccnc2)cc1 [Compound 3c, 2-(1H-Imidazol-1-yl)-1-(4-methoxyphenyl)ethanone] | - | - | 0.21 ± 0.03 |  | 
3 | vitamin E [reference compound] |  |  | 1.00 ± 0.04 |  | 
4 | CCCOC(Cn1ccnc1)c1ccc(Cl)cc1 (centres unmarked) [Compound 11, 1-(2-(4-Chlorophenyl)-2-propoxyethyl)-1H-imidazole] | + | + | 0.31 ± 0.07 |  | 
5 | c1ccc(COC(Cn2ccnc2)c2ccccc2)cc1 (centres unmarked) [Compound 16, 1-(2-(Benzyloxy)-2-phenylethyl)-1H-imidazole] | + | + | 0.41 ± 0.03 |  | 
6 | Cc1ccc(COC(Cn2ccnc2)c2ccc(Cl)cc2)cc1 (centres unmarked) [Compound 21, 1-(2-(4-Chlorophenyl)-2-((4-methylbenzyl)oxy)ethyl)-1H-imidazole] |  |  | 0.25 ± 0.01 | 7.9 | 9.83
7 | COc1ccc(C(Cn2ccnc2)OCc2ccc(C)cc2)cc1 (centres unmarked) [Compound 24, 1-(2-(4-Methoxyphenyl)-2-((4-methylbenzyl)oxy)ethyl)-1H-imidazole] |  |  | 0.46 ± 0.06 | 9.66 | 4.77
8 | C=CCOC(Cn1ccnc1)c1ccccc1 (centres unmarked) [Compound 9, 1-(2-(Allyloxy)-2-phenylethyl)-1H-imidazole] | + | + | 0.12 ± 0.01 |  | 
9 | CCOC(Cn1ccnc1)c1ccc(OC)cc1 (centres unmarked) [Compound 13, 1-(2-Ethoxy-2-(4-methoxyphenyl)ethyl)-1H-imidazole] | + | + | 0.15 ± 0.06 |  | 
10 | Clc1ccc(COC(Cn2ccnc2)c2ccccc2)cc1 (centres unmarked) [Compound 17, 1-(2-((4-Chlorobenzyl)oxy)-2-phenylethyl)-1H-imidazole] |  |  | 0.35 ± 0.07 | 14.8 | 13.2
11 | C=CCOC(Cn1ccnc1)c1ccc(Cl)cc1 (centres unmarked) [Compound 12, 1-(2-(Allyloxy)-2-(4-chlorophenyl)ethyl)-1H-imidazole] | + | + | 0.28 ± 0.04 |  | 
12 | CCOC(Cn1ccnc1)c1ccc(Cl)cc1 (centres unmarked) [Compound 10, 1-(2-(4-Chlorophenyl)-2-ethoxyethyl)-1H-imidazole] | + | + | 0.20 ± 0.03 |  | 
13 | COc1ccc(C(Cn2ccnc2)OCc2ccccc2)cc1 (centres unmarked) [Compound 22, 1-(2-(Benzyloxy)-2-(4-methoxyphenyl)ethyl)-1H-imidazole] |  |  | 0.40 ± 0.05 |  | 
14 | C=CCOC(Cn1ccnc1)c1ccc(OC)cc1 (centres unmarked) [Compound 15, 1-(2-(Allyloxy)-2-(4-methoxyphenyl)ethyl)-1H-imidazole] | + | + | 0.31 ± 0.03 |  | 
15 | Clc1ccc(C(Cn2ccnc2)OCc2ccccc2)cc1 (centres unmarked) [Compound 19, 1-(2-(Benzyloxy)-2-(4-chlorophenyl)ethyl)-1H-imidazole] |  |  | 0.27 ± 0.01 | 11.7 | 15.7
16 | Cc1ccc(COC(Cn2ccnc2)c2ccccc2)cc1 (centres unmarked) [Compound 18, 1-(2-((4-Methylbenzyl)oxy)-2-phenylethyl)-1H-imidazole] | + | + | 0.30 ± 0.04 |  | 
